# According to ChEMBL document CHEMBL1128845, “Novel trityl linked drug immunoconjugates for cancer therapy” (Bioorg Med Chem Lett, 1995):
# Columns and labels:
# LS174T = test: Concentration required to inhibit the incorporation of [3H]leucine to 50 percent of control uptake in LS174T (CEA +ve) Human Colon Carcinoma cells; type: functional, cell-based
# [1] = Conjugation ratio (CR) indicating the number of moles of compound required per 1 mole of antibody (having Molar input ratio (MIR) = 8) was determined
IC50 (LS174T) [µg/mL],CR [1],Structure (SMILES)
10,4.44,NC(=O)c1ccc(C(Nc2nc(N)nc3c2ncn3[C@@H]2O[C@H](CO)[C@@H](O)C2(F)F)(c2ccccc2)c2ccccc2)cc1
0.27,7.44,COc1ccc(C(Nc2nc(N)nc3c2ncn3[C@@H]2O[C@H](CO)[C@@H](O)C2(F)F)(c2ccc(OC)cc2)c2ccc(C(N)=O)cc2)cc1
0.352,6.44,COc1ccc(C(Nc2nc(N)nc3c2ncn3[C@@H]2O[C@H](CO)[C@@H](O)C2(F)F)(c2ccc(OC)cc2)c2cccc(C(N)=O)c2)cc1
4.94,5.73,COc1ccc(C(Nc2nc(N)nc3c2ncn3[C@@H]2O[C@H](CO)[C@@H](O)C2(F)F)(c2ccccc2)c2ccc(C(N)=O)cc2)cc1 (stereo partly drawn)
0.26,,Nc1nc(N)c2ncn([C@@H]3O[C@H](CO)[C@@H](O)C3(F)F)c2n1
6.04,5.2,Cc1ccc(C(Nc2nc(N)nc3c2ncn3[C@@H]2O[C@H](CO)[C@@H](O)C2(F)F)(c2ccccc2)c2ccc(C(N)=O)cc2)cc1 (stereo partly drawn)
2.71,7.49,COc1ccc(C(Nc2nc(N)nc3c2ncn3[C@@H]2O[C@H](CO)[C@@H](O)C2(F)F)(c2ccc(C)cc2)c2ccc(C(N)=O)cc2)cc1 (stereo partly drawn)
